Patent publication US8614327B2 (Vertex Pharmaceuticals Incorporated, priority 2004, dated 2013)

Target: T1, ΔF508-CFTR (Homo sapiens, UniProt P13569, DEL508-508)
T1 construct: expressed in transfected cells
Test: Membrane potential optical (FRET/VIPR) assay, identification of potentiator compounds
Format: cell-based
Conditions: Table 3, assay not given; for % Activity: relative efficacy
How it was run: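 NIH3T3 mouse fibroblasts stably expressing ΔF508-CFTR, temperature-corrected 24 h at 27° C., read on VIPR by FRET between CC2-DMPE and DiSBAC2(3). Potentiators identified in a double-addition format, first adding chloride-free (gluconate) medium with or without compound.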

T1 sequence (P13569 with tags, fused parts or gaps DEL508-508): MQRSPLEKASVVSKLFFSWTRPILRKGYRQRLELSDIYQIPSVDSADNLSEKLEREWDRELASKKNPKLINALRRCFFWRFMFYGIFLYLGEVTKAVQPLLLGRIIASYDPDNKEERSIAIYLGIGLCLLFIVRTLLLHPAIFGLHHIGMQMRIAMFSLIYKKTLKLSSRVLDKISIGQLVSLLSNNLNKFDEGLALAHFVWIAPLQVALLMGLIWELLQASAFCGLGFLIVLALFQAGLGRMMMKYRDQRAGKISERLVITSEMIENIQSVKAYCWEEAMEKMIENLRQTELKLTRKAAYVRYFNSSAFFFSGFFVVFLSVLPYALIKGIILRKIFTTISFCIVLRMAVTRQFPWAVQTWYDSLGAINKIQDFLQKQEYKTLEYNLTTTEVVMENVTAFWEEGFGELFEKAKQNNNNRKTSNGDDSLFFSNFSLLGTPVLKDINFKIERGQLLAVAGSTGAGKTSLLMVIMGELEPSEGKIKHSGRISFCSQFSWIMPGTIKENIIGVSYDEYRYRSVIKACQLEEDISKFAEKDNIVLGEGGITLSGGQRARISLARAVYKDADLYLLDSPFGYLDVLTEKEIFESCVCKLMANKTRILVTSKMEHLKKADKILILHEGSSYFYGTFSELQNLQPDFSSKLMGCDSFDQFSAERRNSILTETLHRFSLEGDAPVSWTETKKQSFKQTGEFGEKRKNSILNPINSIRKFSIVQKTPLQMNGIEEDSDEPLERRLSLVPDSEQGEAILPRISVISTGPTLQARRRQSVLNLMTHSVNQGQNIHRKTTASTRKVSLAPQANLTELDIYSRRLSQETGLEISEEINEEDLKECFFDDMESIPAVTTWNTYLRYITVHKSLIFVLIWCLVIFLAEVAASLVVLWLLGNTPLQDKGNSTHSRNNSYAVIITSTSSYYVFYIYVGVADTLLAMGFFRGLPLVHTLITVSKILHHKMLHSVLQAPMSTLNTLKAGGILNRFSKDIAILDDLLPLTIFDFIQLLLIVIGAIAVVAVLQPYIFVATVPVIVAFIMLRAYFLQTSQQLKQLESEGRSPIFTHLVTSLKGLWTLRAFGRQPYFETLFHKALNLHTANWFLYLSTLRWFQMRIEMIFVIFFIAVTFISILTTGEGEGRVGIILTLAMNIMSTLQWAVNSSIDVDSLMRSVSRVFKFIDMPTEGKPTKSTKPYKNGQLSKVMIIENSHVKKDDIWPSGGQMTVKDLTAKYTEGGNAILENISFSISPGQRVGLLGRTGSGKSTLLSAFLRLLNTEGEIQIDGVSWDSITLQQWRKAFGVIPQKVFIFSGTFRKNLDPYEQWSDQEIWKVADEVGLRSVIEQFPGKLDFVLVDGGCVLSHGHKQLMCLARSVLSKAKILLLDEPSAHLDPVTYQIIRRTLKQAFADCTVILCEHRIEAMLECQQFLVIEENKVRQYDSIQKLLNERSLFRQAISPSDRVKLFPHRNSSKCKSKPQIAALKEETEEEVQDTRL

Compound	EC50 [µM]	% Activity
CCc1c[nH]c2cc(NC(=O)c3c[nH]c4ccccc4c3=O)ccc12 [Compound 383, N-(3-ethyl-1H-indol-6-yl)-4-oxo-1H-quinoline-3-carboxamide]	< 10	++ (between 25% to 100%)
O=C(Nc1ccccc1-c1cc(F)ccc1F)c1c[nH]c2ccccc2c1=O [Compound 384, N-[2-(2,5-difluorophenyl)phenyl]-4-oxo-1H-quinoline-3-carboxamide]	< 10	++ (between 25% to 100%)
O=C(Nc1cccnc1Oc1ccc(F)cc1F)c1c[nH]c2ccccc2c1=O [Compound 385, N-[2-(2,4-difluorophenoxy)-3-pyridyl]-4-oxo-1H-quinoline-3-carboxamide]		++ (between 25% to 100%)
CC1(C)CNc2cc(NC(=O)c3c[nH]c4ccccc4c3=O)ccc21 [Compound 386, N-(3,3-dimethylindolin-6-yl)-4-oxo-1H-quinoline-3-carboxamide]	< 10	++ (between 25% to 100%)
Cc1c(NC(=O)c2c[nH]c3ccccc3c2=O)cccc1C(F)(F)F [Compound 387, N-[2-methyl-3-(trifluoromethyl)phenyl]-4-oxo-1H-quinoline-3-carboxamide]	< 10	++ (between 25% to 100%)
O=C(Nc1ccccc1-c1ccc(OC(F)(F)F)cc1)c1c[nH]c2ccccc2c1=O [Compound 388, 4-oxo-N-[2-[4-(trifluoromethoxy)phenyl]phenyl]-1H-quinoline-3-carboxamide]	< 10	++ (between 25% to 100%)
O=C(Nc1cccc(Cc2ccccc2)c1)c1c[nH]c2ccccc2c1=O [Compound 389, N-(3-benzylphenyl)-4-oxo-1H-quinoline-3-carboxamide]	< 10	++ (between 25% to 100%)
CC(C)(C)c1ccc(NC(=O)c2c[nH]c3ccccc3c2=O)cc1CN [Compound 390, N-[3-(Aminomethyl)-4-tert-butyl-phenyl]-4-oxo-1H-quinoline-3-carboxamide]	25 to 60	+ (<25%)
CC(C)Cc1ccc(-c2ccccc2NC(=O)c2c[nH]c3ccccc3c2=O)cc1 [Compound 391, N-[2-(4-isobutylphenyl)phenyl]-4-oxo-1H-quinoline-3-carboxamide]	< 10	++ (between 25% to 100%)
O=C(Nc1ccc(Cl)nc1)c1c[nH]c2ccccc2c1=O [Compound 392, N-(6-chloro-3-pyridyl)-4-oxo-1H-quinoline-3-carboxamide]	25 to 60	+ (<25%)
CCOc1ccccc1-c1ccc(N)cc1NC(=O)c1c[nH]c2ccccc2c1=O [Compound 393, N-[5-amino-2-(2-ethoxyphenyl)-phenyl]-4-oxo-1H-quinoline-3-carboxamide]	< 10	++ (between 25% to 100%)
Cc1ccc2c(c1)c(=O)c(C(=O)Nc1ccccc1)cn2C [Compound 394, 1,6-dimethyl-4-oxo-N-phenyl-1H-quinoline-3-carboxamide]	25 to 60	+ (<25%)
O=C(Nc1cc(O)c(C23CC4CC(CC(C4)C2)C3)cc1F)c1cnc2ccccc2c1O [Compound 395, N-[4-(1-adamantyl)-2-fluoro-5-hydroxy-phenyl]-4-hydroxy-quinoline-3-carboxamide]	< 10	++ (between 25% to 100%)
CC(C)(CNC(=O)OCC1CCOC1)c1ccc(NC(=O)c2c[nH]c3ccccc3c2=O)cc1 (stereo not shown) [Compound 396, [2-methyl-2-[4-[(4-oxo-1H-quinolin-3-yl)carbonylamino]phenyl]-propyl]aminoformic acid tetrahydrofuran-3-ylmethyl ester]	10 to 25	++ (between 25% to 100%)
O=C(Nc1ccc(-c2ccccc2)cc1)c1c[nH]c2ccccc2c1=O [Compound 397, 4-oxo-N-(4-phenylphenyl)-1H-quinoline-3-carboxamide]	< 10	++ (between 25% to 100%)
Cc1ccc(S(=O)(=O)Nc2ccccc2NC(=O)c2c[nH]c3ccccc3c2=O)cc1 [Compound 398, 4-oxo-N-[2-(p-tolylsulfonylamino)phenyl]-1H-quinoline-3-carboxamide]	10 to 25	++ (between 25% to 100%)
CNc1ccc(C(C)C)c(NC(=O)c2c[nH]c3ccccc3c2=O)c1 [Compound 399, N-(2-isopropyl-5-methylamino-phenyl)-4-oxo-1H-quinoline-3-carboxamide]	< 10	++ (between 25% to 100%)
O=C(Nc1ccc(N2CCOCC2)nc1)c1c[nH]c2ccccc2c1=O [Compound 400, N-(6-morpholino-3-pyridyl)-4-oxo-1H-quinoline-3-carboxamide]	25 to 60	+ (<25%)
Cc1cccc(-c2ccccc2NC(=O)c2c[nH]c3ccccc3c2=O)c1C [Compound 401, N-[2-(2,3-dimethylphenyl)phenyl]-4-oxo-1H-quinoline-3-carboxamide]	< 10	++ (between 25% to 100%)

Compound	EC50 [µM]	% Activity
O=C(Nc1ccc(-c2ccccc2)cn1)c1c[nH]c2ccccc2c1=O [Compound 402, 4-oxo-N-(5-phenyl-2-pyridyl)-1H-quinoline-3-carboxamide]	< 10	+ (<25%)
CC1(c2cc(F)c(NC(=O)c3cnc4ccccc4c3O)cc2O)CCCCCCC1 [Compound 403, N-[2-fluoro-5-hydroxy-4-(1-methylcyclooctyl)-phenyl]-4-hydroxy-quinoline-3-carboxamide]	< 10	++ (between 25% to 100%)
COc1cccc(OC)c1-c1cc2cc[nH]c2cc1NC(=O)c1c[nH]c2ccccc2c1=O [Compound 404, N-[5-(2,6-dimethoxyphenyl)-1H-indol-6-yl]-4-oxo-1H-quinoline-3-carboxamide]	< 10	++ (between 25% to 100%)
O=C(Nc1ccc(Cl)cc1)c1c[nH]c2ccccc2c1=O [Compound 405, N-(4-chlorophenyl)-4-oxo-1H-quinoline-3-carboxamide]	< 10	++ (between 25% to 100%)
CN(c1ccc(F)cc1)S(=O)(=O)c1ccc2[nH]cc(C(=O)Nc3cc4[nH]ccc4cc3C(C)(C)C)c(=O)c2c1 [Compound 406, 6-[(4-fluorophenyl)-methyl-sulfamoyl]-4-oxo-N-(5-tert-butyl-1H-indol-6-yl)-1H-quinoline-3-carboxamide]	< 10	++ (between 25% to 100%)
CC(C)(C)c1cc(F)c(NC(=O)c2c[nH]c3cccc(O)c3c2=O)cc1O [Compound 407, N-(2-fluoro-5-hydroxy-4-tert-butyl-phenyl)-5-hydroxy-4-oxo-1H-quinoline-3-carboxamide]	< 10	++ (between 25% to 100%)
COc1cccc(NC(=O)c2c[nH]c3ccccc3c2=O)c1 [Compound 408, N-(3-methoxyphenyl)-4-oxo-1H-quinoline-3-carboxamide]	< 10	++ (between 25% to 100%)
CCc1ccc(N(C)C)cc1NC(=O)c1c[nH]c2ccccc2c1=O [Compound 409, N-(5-dimethylamino-2-ethyl-phenyl)-4-oxo-1H-quinoline-3-carboxamide]	< 10	++ (between 25% to 100%)
O=C(Nc1ccccc1-c1ccc(Oc2ccccc2)cc1)c1c[nH]c2ccccc2c1=O [Compound 410, 4-oxo-N-[2-(4-phenoxyphenyl)phenyl]-1H-quinoline-3-carboxamide]	< 10	+++ (>100%)
O=C(Nc1ccccc1)c1c[nH]c2cc(Cl)ccc2c1=O [Compound 411, 7-chloro-4-oxo-N-phenyl-1H-quinoline-3-carboxamide]	< 10	++ (between 25% to 100%)
CCOC(=O)c1c(NC(=O)c2c[nH]c3ccccc3c2=O)ccc2cc[nH]c12 [Compound 412, 6-[(4-oxo-1H-quinolin-3-yl)carbonylamino]-1H-indole-7-carboxylic acid ethyl ester]	< 10	++ (between 25% to 100%)
O=C(Nc1ccccc1Oc1ccccc1)c1c[nH]c2ccccc2c1=O [Compound 413, 4-oxo-N-(2-phenoxyphenyl)-1H-quinoline-3-carboxamide]	< 10	++ (between 25% to 100%)
O=C(Nc1ccc2nc[nH]c2c1)c1c[nH]c2ccccc2c1=O [Compound 414, N-(3H-benzoimidazol-5-yl)-4-oxo-1H-quinoline-3-carboxamide]	25 to 60	+ (<25%)
COc1c(C(=O)Nc2ccc(C(C)(C)C)c(O)c2)cnc2ccccc12 [Compound 415, N-(3-Hydroxy-4-tert-butyl-phenyl)-4-methoxy-quinoline-3-carboxamide]	< 10	++ (between 25% to 100%)
CCCOC(=O)NCC(C)(C)c1ccc(NC(=O)c2c[nH]c3ccccc3c2=O)cc1 [Compound 416, [2-methyl-2-[4-[(4-oxo-1H-quinolin-3-yl)carbonylamino]phenyl]-propyl]aminoformic acid propyl ester]	< 10	++ (between 25% to 100%)
O=C(Nc1ccccc1-c1csc2ccccc12)c1c[nH]c2ccccc2c1=O [Compound 417, N-(2-(benzo[b]thiophen-3-yl)phenyl)-1,4-dihydro-4-oxoquinoline-3-carboxamide]	< 10	++ (between 25% to 100%)
CN(C)c1cccc(NC(=O)c2c[nH]c3ccccc3c2=O)c1 [Compound 418, N-(3-dimethylaminophenyl)-4-oxo-1H-quinoline-3-carboxamide]	10 to 25	++ (between 25% to 100%)
CC(=O)Nc1cccc(NC(=O)c2c[nH]c3ccccc3c2=O)c1 [Compound 419, N-(3-acetylaminophenyl)-4-oxo-1H-quinoline-3-carboxamide]	25 to 60	+ (<25%)
